Data from US10292994B2, “Bioactive fractions and compounds from Dalbergia sissoo for the prevention or treatment of osteo-health related disorders” (Council of Scientific & Industrial Research, priority 2011, dated 2019).
Marks after values point to notes of the source that are not given here.

Assays:
[1] = test system: Calvarial osteoblasts; test: Osteoblast alkaline phosphatase (ALP) activity; format: cell-based, rat; settings: for ALP activity: calvarial osteoblasts, 10 days culture, FIG. 6
Procedure: (§1) Neonatal rat calvarial cell cultures are prepared as described previously (Chattopadhyay et al., Endocrinology 145:3451-62, 2004) using slight modification. Briefly, for calvarial osteoblast cultures, frontal and parietal bones from neonatal Sprague-Dawley rats (1-3 day old) were digested in 0.1% collagenase/0.1% dispase in α-MEM to obtain 5 sequential digests. The second through fifth digests are combined and grown to confluence at 37° C. and 5% CO2 in air in α-MEM, supplemented with 10% fetal bovine serum (FBS), 2 mM glutamine, 100 U/ml penicillin-streptomycin, non-essential amino acid solution and sodium pyruvate. These osteoblast cells were further used to test thirteen pure compounds designated as 1-13. During the course of culture, pre-osteoblasts undergo three characteristic stages of osteoblasts with the expression of stage specific genes. These are: • Proliferation & differentiation: Days 1-12 • Genes—cbfa1, Osterix, Alkaline phosphatase, • Collagen-1 • Extra-cellular matrix maturation: Days 12-18 • Genes—Osteocalcin, Osteopontin, Fibronectin • Mineralization: Days 14-35 • Feature—Calcification (nodule formation) Measurement of Osteoblast Alkaline Phosphatase (ALP) Activity
Calvarial osteoblasts cells were plated (1500 cells/well in 12 well plate) in the osteoblast differentiation medium and the culture was continued for 10 days with or without treatment with these compounds. This is the time when the ALP levels peak, and serves as an osteoblast differentiation marker. The cells at this point were washed twice with PBS and then plates were fixed by keeping them at −70° C. for 1 h, and then brought to room temperature to determine ALP activity. The rate of the reaction here is directly proportional to the enzyme activity, which itself is proportional to osteoblast differentiation. The O.D. was measured at 405 nm with a microplate reader.

[2] = test system: Osteoblasts; test: Osteoblast growth / toxicity (MTT); format: cell-based, rat; settings: FIG. 8; for growth / proliferation of the osteoblastic cells: 1 pM to 1 μM, 48 h
Procedure: as §1, with “Briefly,” for “Neonatal rat calvarial cell cultures are prepared as described previously (Chattopadhyay et al., Endocrinology 145:3451-62, 2004) using slight modification. Briefly,”
Many isoflavonoids at micromolar concentrations are known to inhibit osteoblast cell growth. Osteoblasts were cultured in the absence or presence of compounds (dissolved in 0.01% DMSO final concentration) at various concentrations (1 pM to 1 μM) for 48 h. Cells receiving vehicle (0.01% DMSO) served as control. After incubation, the cells were washed with PBS. Then, cells were treated with MTT solution (5 mg/10 mL in DMEM devoid of Phenol Red) for 4 h. Formazon crystals formed were dissolved in DMSO and O.D. was taken at 540 nm.

[3] = test system: bone morphogenetic protein (BMP-2); test: In vivo osteogenic efficacy: BMP-2 expression in calvaria by qPCR; design: species or system rat; settings: calvaria of 1- to 2-day-old rats, 5.0 mg·kg−1·day−1 s.c. for 3 consecutive days, fold change over vehicle/untreated, FIG. 7
Source text: The results are expressed as fold change over untreated cells (FIG. 7).

[4] = test system: ovariectomized Balb/c mice; test: μCT trabecular microarchitecture after 8 weeks treatment of osteopenic OVx mice; format: in vivo, mouse; design: Tb. Th. / Tb. Sp.: unit not given here; settings: for SMI / Tb. No. / Tb. Sp. / Tb. Th. / BV/TV: 8 weeks; for BV/TV: osteopenic OVx mice, mean ± S.D.
Procedure: The study was conducted in accordance with current legislation on animal experiments [Institutional Animal Ethical Committee (IAEC)] at C.D.R.I. Balb/c mice weighing ˜25-30 gm were either bilaterally ovariectomized (OVx) or exposed to a sham surgical procedure. After ovariectomy, mice were left for 30 days for osteopenia to develop. Mice were individually housed at 21° C., in 12-h light:12-h dark cycles. All mice had excess to normal chow diet and water ad libitum. […], treatment in the form of gavage (1.0 mg and 5.0 mg/kg body weight) was given daily. Equal numbers of OVx and sham operated mice served as the control, and were given vehicle. At the end of 8 weeks, mice were euthanized. At autopsy, both femur and tibia were dissected and separated from adjacent tissue, cleaned, and used for μCT measurements.

[5] = test system: bone marrow stromal cells; test: Mineralization of bone marrow stromal cells of estrogen deficient rats; format: in vivo, rat; settings: estrogen deficient (OVx) rats vs OVx rats treated with vehicle; estrogen 2.5 μg/kg
[6] = test system: ovariectomized (OVx) Sprague Dawley rats; test: μCT trabecular microarchitecture after 12 weeks treatment of OVx rats; format: in vivo, rat; settings: for SMI / Tb. No. / Tb. Sp. / Tb. Th.: estradiol 2.5 μg·kg−1·day−1; for BV/TV: estradiol 2.5 μg·kg−1·day−1, mean ± S.D.
Procedure: The study was conducted in accordance with current legislation on animal experiments [Institutional Animal Ethical Committee (IAEC)] at C.D.R.I. […] Sprague Dawley rats weighing 180-200 gm were either bilaterally ovariectomized (OVx) or exposed to a sham surgical procedure. All rats were individually housed at 21° C., in 12-h light:12-h dark cycles. All rats had excess to normal chow diet and water ad libitum. After OVx, the rats were left for 12 weeks to develop osteopenia. […] Equal numbers of OVx and sham operated rats served as the control, and were given vehicle (20% ethanol). The rats were weighed each week. […] After twenty-four hours of fasting urine samples were collected in fresh containers, centrifuged at 2000 rpm at room temperature and stored at -20° C. until analyzed. Rats were then euthanized. At autopsy, blood samples were collected by cardiac puncture in tubes, and serum samples collected and frozen until analysis. Uteri were carefully excised, gently blotted, weighed, and fixed for histology and histomorphometry. About 5 mm pieces from the middle segment of each uterus were dehydrated in ascending grades of ethanol, cleared in xylene, and embedded in paraffin wax using standard procedures. Representative transverse sections (5 μm) were stained with H&E stain. Photomicrographs of sections were obtained using a Leica DC 300 camera and Leica IM50 Image Acquisition software fitted to a Leica DMLB microscope. Histomorphometric measurements were done using Leica Qwin-Semiautomatic image Analysis software. μCT (both 2-D and 3-D) determination of excised bones was carried out using the Sky Scan 1076 μCT scanner (Aartselaar, Belgium) using the cone-beam reconstruction software version 2.6 based on the Feldkamp algorithm (Skyscan). The bone marrow was harvested for ex vivo experiments. Both femora were dissected and separated from adjacent tissue, cleaned, and used for RNA isolation and also micro measurements. Trabecular response to A-4744/[…] treatment of OVx rats was quantified at the femur epiphysis and tibial proximal metaphysis.

[7] = femur, OVx mice, 1 mg · kg^-1 · day^-1
[8] = femur, OVx mice, 5 mg · kg^1 · day^1
[9] = tibia, OVx mice, 1 mg · kg^-1 · day^-1
[10] = tibia, OVx mice, 5 mg · kg^1 · day^1

## COc1ccc(-c2coc3cc(O)cc(O)c3c2=O)cc1 [Compound 1, Biochanin A]
[1]
  ALP activity: significantly increased
[2]
  growth / proliferation of the osteoblastic cells: proliferation

## COc1cc(-c2coc3cc(O)cc(O)c3c2=O)ccc1O [Compound 3, Pratensein or 3′-methoxygenistein]
[1]
  ALP activity: significantly increased
[2]
  growth / proliferation of the osteoblastic cells: proliferation

## O=c1c(-c2ccc(O)cc2)coc2cc(O)cc(O)c12 [Compound 4, Genstein]
[1]
  ALP activity: significantly increased
[3]
  increase in BMP-2 expression: 5 fold
[2]
  growth / proliferation of the osteoblastic cells: proliferation

## COc1ccc(-c2coc3cc(O[C@@H]4OC(CO)[C@@H](O)[C@H](O)C4O)cc(O)c3c2=O)cc1 (stereo partly drawn) [Compound 6, Biochanin 7-O-glycoside]
[1]
  ALP activity: significantly increased
[2]
  growth / proliferation of the osteoblastic cells: proliferation
other
  melting point: 206 to 208 °C

## COc1cc(OC)c(-c2coc3cc(O[C@@H]4OC(COC5OCC(O)(CO)C5O)[C@@H](O)C(O)C4O)c(OC)c(O)c3c2=O)cc1OC (stereo partly drawn) [Compound 10]
[1]
  ALP activity: significantly increased
[1]; over the control, listed as Caviunin 7-O-[β-D-apiofuranosyl-(1→6)-β-D-glucopyranoside]
  increase in osteoblast differentiation over the control, assessed by ALP production: > 1.0 fold
[3]
  increase in BMP-2 expression: 15 fold
[2]
  growth / proliferation of the osteoblastic cells: proliferation
[2]; osteoblasts, 1 pM to 1 μM for 48 h, vs vehicle control
  toxicity to the cells: not toxic
[4]; OVx mice
  trabecular bone in tibia metaphysis: significantly restored
[4]; femur epiphysis of OVx mice compared to OVx+vehicle mice
  Tb.sp and SMI: increased
[4]; femur epiphysis of OVx mice compared with OVx+vehicle group
  BV/TV, Tb.Th and Tb.N: increased
[4]; [7]
  SMI: 1.992 ± 0.0382
  Tb. No.: 0.588 ± 0.034
  Tb. Sp.: 0.529 ± 0.022
  Tb. Th.: 0.069 ± 0.002
[4]; [8]
  SMI: 1.615 ± 0.0434***^a
  Tb. No.: 0.759 ± 0.061***^b
  Tb. Sp.: 0.502 ± 0.023 ^
  Tb. Th.: 0.070 ± 0.001 ^
[4]; femur, 1 mg · kg^-1 · day^-1
  BV/TV: 4.10 ± 0.253 %
[4]; femur, 5 mg · kg^1 · day^1
  BV/TV: 5.54 ± 0.739***^a %
[4]; [9]
  SMI: 2.46 ± 0.051
  Tb. No.: 0.222 ± 0.018
  Tb. Sp.: 0.690 ± 0.013
  Tb. Th.: 0.064 ± 0.0015
[4]; [10]
  SMI: 2.43 ± 0.072
  Tb. No.: 0.266 ± 0.014
  Tb. Sp.: 0.671 ± 0.040
  Tb. Th.: 0.065 ± 0.001
[4]; tibia, 1 mg · kg^-1 · day^-1
  BV/TV: 1.67 ± 0.086 %
[4]; tibia, 5 mg · kg^1 · day^1
  BV/TV: 1.701 ± 0.120 %
[5]
  mineralization of the bone marrow stromal cells: significantly greater mineralization
other
  melting point: 135 to 138 °C

## C[C@]12CC[C@@H]3c4ccc(O)cc4CC[C@H]3[C@@H]1CC[C@@H]2O [ESTRADIOL (E2), Estradiol]
[6]; femur
  SMI: 2.41 ± 0.13
  Tb. No.: 0.725 ± 0.024
  Tb. Sp.: 0.86 ± 0.004
  Tb. Th.: 0.78 ± 0.01
  BV/TV: 59.23 ± 30.19 %
[6]; tibia
  SMI: 2.24 ± 0.021
  Tb. No.: 0.30 ± 0.02
  Tb. Sp.: 1.29 ± 0.029
  Tb. Th.: 0.10 ± 0.004
  BV/TV: 3.04 ± 0.24 %
[5]
  mineralization of the bone marrow stromal cells: unable to increase mineralization
